From patent US4855304A, “Dinucleoside pyrophosphates and pyrophosphate homologs as plant antivirals” (Repligen Corporation, priority 1985, dated 1989)
Where two headings read alike, the source gives them in different places.

What was measured:
[1] = system: TMV (tobacco mosaic virus) replication in TMV-infected tobacco leaf discs; experiment: Antiviral activity in TMV-infected leaf discs (TMV content by ELISA); assay type: cell-based, tobacco mosaic virus; leaf discs of N. tabacum var. samsun; design: key to TMV content: N.I.: no inhibition; settings: for ng TMV/ml: control 550 (Table 4)
Protocol: Assays for antiviral activity in TMV-infected leaf discs were done using leaves of N. tabacum var. samsun in which TMV is systemically spread. Leaves were mechanically inoculated with purified TMV (5 μg/ml in 0.01M sodium phosphate buffer, pH 7.6, containing 0.1 g/ml of carborundum as an abrasive). Immediately after infection, leaf discs (6.5 mm diameter) were punched out of the inoculated leaves and placed in a beaker containing 0.01M sodium phosphate, pH 7.6.
selected at random from this common pool and placed onto separate petri dishes, each containing 18 ml of 10 mM 4-(2-hydroxyethyl)-1-piperazine ethanesulfonic acid (HEPES)-KOH, pH 7.05, 188 mg/L Na2 HPO4 --7H2 O. […] At the end of the 1 hr incubation, the buffer containing the antiviral dinucleotide was replaced by a buffer lacking the antiviral dinucleotide for another hr. The discs were then washed with 0.01M sodium phosphate, pH 7.6, and were allowed to incubate for an additional 72 hr in phosphate buffer (Devash, Y., Biggs, S. and Sela, I. [1982] Science 216: 1415-1416; Devash, Y. et al. [1984] J. Biol. Chem. 259: 3482-3486). The discs were homogenized in 0.01M sodiuM phosphate buffer, pH 7.6, and the TMV content was determined by enzyme-linked immunosorbent assay (ELISA) as described below.
(§1) The TMV content of the homogenates was determined by ELISA essentially by the method of Clark and Adams ([1977] J. Gen. Virol. 34: 475-483) but with the following order of layers on the microtiter plates.
(§2) (a) the γ-globulin fraction of a serum obtained from a chicken immunized against TMV was absorbed directly to the plate.
(§3) (b) The next layer was the tested sample (at various dilutions) or a series of purified TMV suspensions at known concentrations (calibration curve).
(§4) (c) The third layer was the γ-globulin from the serum of a TMV-immunized rabbit.
(§5) (d) The final layer was goat antibody to rabbit immunoglobulin G conjugated with alkaline phosphatase (Sigma). The release of phosphate from p-nitrophenyl phosphate due to the antibody-conjugated alkaline phosphatase was monitored spectrophotometrically with a Microplate reader (Dynatech Diagnostics, Inc. South Windham, ME) and was proportional to TMV concentration in a log linear manner for about two logs (<2 ng to>200 ng). (Devash, Y., Biggs, S. and Sela, I. [1982] Science 216: 1415-1416)
The γ-globulin fraction of serum obtained from chickens and rabbits immunized against TMV were generous gifts from Professor Ilan Sela, The Hebrew University of Jerusalem, Agriculture Faculty, Rehobot, Israel.

[2] = system: TMV (tobacco mosaic virus) replication in intact N. glutinosa plants; experiment: Antiviral activity in N. glutinosa intact plants, infectivity test (local lesions); assay type: in vivo, tobacco mosaic virus; Nicotiana glutinosa; settings: for induced resistance to TMV infection in the non-treated half-leaf: 1 μM (10^-6 M)
Protocol: (§6) Nicotiana glutinosa and N. tabacum var. samsum plants were grown in potting medium in greenhouse conditions (25±3° C., and constant illumination). The plants were fertilized with a commercial fertilizer every two weeks. Plants were used at 5-8 leaf stage (Devash, Y., Biggs, S. and Sela, I. [1982] Science 216: 1415-1416; Devash, Y. et al. [1984] Jour. Biol. Chem. 259: 3482-3486).
The ability of the antiviral dinucleotides to inhibit TMV replication in intact N. glutinosa plants (containing N-gene for TMV localization) was determined by infectivity tests. Solutions containing 5 μg/ml TMV, 0.1 μg/ml carborundum, and antiviral dinucleotide were applied to 5 half-leaves of N. glutinosa. The opposite half-leaves served as controls and were inoculated with infecting solution containing TMV and carborundum but no dinucleotides. The infection was allowed to proceed 48 hr. Inhibition of TMV replication was calculated as the percent of local lesions produced in antiviral compound treated half-leaves, as compared to control half-leaves.

[3] = system: TMV (tobacco mosaic virus) in N. tabacum plants; experiment: Root application to N. tabacum intact plants (TMV content by ELISA); assay type: in vivo, tobacco mosaic virus; Nicotiana tabacum; settings: for suppression (inhibition) of the virus: 1 μM (10^-6 M), exposure of plant roots; for % Protection / ng TMV/g of leaves: 1 μM, roots, 2 hr; for ng TMV/g of leaves: control 200
Protocol: as §6
Nicotiana tabacum plants were used as a source of plant tissue in which TMV is spread systemically.
(a) Root application: N. tabacum plants were removed from their pots and transferred into 50 ml tubes containing 10 ml of 10 mM HEPES-KOH, pH 7.6, and the antiviral dinucleotides. Two hr later, plants were transferred into 50 ml tubes lacking the antiviral compound and were inoculated by TMV as described above. Twenty-four hr later leaves were homogenized in 0.01M sodium phosphate buffer, pH 7.6, (1 g leaves/3 ml buffer) and TMV content was determined by ELISA.
as §1, §2, §3, §4, §5
In order to establish the relationship of the induced resistance to the N-gene for viral localization and to the transmission ability of the compounds, a comparison between leaf application and root application of antiviral dinucleotides to N. tabacum plants was made. N. tabacum plants were removed into vials containing 10 ml of 10 mM HEPES-KOH, pH 7.6, and 1 μM of antiviral dinucleotide. The plant roots were allowed to remain in the solutions for 2 hr and then were transferred to vials containing the buffer without the antiviral compounds.
The plants then were infected with TMV as above. (See section 4. Antiviral activity on N. tabacum intact plants, paragraph [a].) Another group of N. tabacum plants was tested as described in the above-noted section, paragraph (b).

[4] = 10 nM (10^-8 M), non-treated half-leaf
[5] = 10 nM (10^-8 M), treated half-leaf
[6] = 100 nM (10^-7 M), non-treated half-leaf
[7] = 100 nM (10^-7 M), treated half-leaf
[8] = 1000 nM (10^-6 M), non-treated half-leaf
[9] = 1000 nM (10^-6 M), treated half-leaf

Nc1ncnc2c1ncn2[C@@H]1O[C@H](COP(=O)(O)OP(=O)(O)O[C@H]2[C@@H](O)[C@H](n3cnc4c(N)ncnc43)O[C@@H]2CO)[C@@H](O)[C@H]1O [A3'pp5'A, adenosine 3',5'-diphospho-adenosine]
ng TMV/ml ([1]; 2 × 10^-9 M): 550 ng TMV/ml
ng TMV/ml ([1]; 20 × 10^-9 M): 200 ng TMV/ml
ng TMV/ml ([1]; 200 × 10^-9 M): 150 ng TMV/ml
effectiveness in inhibiting TMV replication compared with 2',5'-adenylate trimer core ([1]; TMV-infected discs, in words): confer similar antiviral state
inhibition at 0.002 µM ([1]; Tobacco mosaic virus, 2 × 10^-9 M (Table 4), read-out: % Inhibition as Related to Control): 0%
inhibition at 0.02 µM ([1]; Tobacco mosaic virus, 20 × 10^-9 M (Table 4), read-out: % Inhibition as Related to Control): 64%
inhibition at 0.2 µM ([1]; Tobacco mosaic virus, 200 × 10^-9 M (Table 4), read-out: % Inhibition as Related to Control): 73%
induced resistance to TMV infection in the non-treated half-leaf ([2]; in words): resulted in an induced resistance to TMV infection even in the non-treated half-leaf
percent protection as compared to control TMV infected leaves ([2]; 10^-6 M, non-treated half leaf (Table 5)): 93%
percent protection as compared to control TMV infected leaves ([2]; 10^-6 M, treated half leaf (Table 5)): 100%
inhibition of TMV replication (inhibition of formation of local lesions) ([2]; N. glutinosa intact plants, in words): inhibited the TMV replication

Nc1ncnc2c1ncn2[C@@H]1O[C@H](COP(=O)(O)OP(=O)(O)OC[C@H]2O[C@@H](n3cnc4c(N)ncnc43)[C@H](O)[C@@H]2O)[C@@H](O)[C@H]1O [A5'pp5'A, diadenosine 5',5'"-p^1,p^2 -diphosphate]
suppression (inhibition) of the virus [3]: 98-100%
% Protection [3]: 100%
ng TMV/g of leaves [3]: 0 ng TMV/g of leaves
TMV content ([1]; 100 nM, treatment with [Ca^+2] coprecipitation, control 75): 48 ngTMV/ml
TMV content ([1]; 100 nM, treatment without [Ca^+2] coprecipitation, control 56): N.I.
TMV content ([1]; 200 nM, treatment with [Ca^+2] coprecipitation, control 75): 44 ngTMV/ml
TMV content ([1]; 200 nM, treatment without [Ca^+2] coprecipitation, control 56): N.I.
inhibition at 0.1 µM ([1]; Tobacco mosaic virus, 100 nM, treatment with [Ca^+2] coprecipitation, read-out: percent inhibition as related to control): 36%
inhibition at 0.1 µM ([1]; Tobacco mosaic virus, 100 nM, treatment without [Ca^+2] coprecipitation, read-out: percent inhibition as related to control): 0%
inhibition at 0.2 µM ([1]; Tobacco mosaic virus, 200 nM, treatment with [Ca^+2] coprecipitation, read-out: percent inhibition as related to control): 41%
inhibition at 0.2 µM ([1]; Tobacco mosaic virus, 200 nM, treatment without [Ca^+2] coprecipitation, read-out: percent inhibition as related to control): 0%
percent protection as compared to control TMV infected leaves [2, 4]: 68.4%
percent protection as compared to control TMV infected leaves [2, 5]: 96.0%
percent protection as compared to control TMV infected leaves [2, 6]: 54.6%
percent protection as compared to control TMV infected leaves [2, 7]: 95.4%
induced resistance to TMV infection in the non-treated half-leaf ([2]; in words): resulted in an induced resistance to TMV infection even in the non-treated half-leaf
percent protection as compared to control TMV infected leaves [2, 8]: 100%
percent protection as compared to control TMV infected leaves [2, 9]: 100%

Nc1ccn([C@@H]2O[C@H](COP(=O)(O)OP(=O)(O)OC[C@H]3O[C@@H](n4cnc5c(N)ncnc54)[C@H](O)[C@@H]3O)[C@@H](O)[C@H]2O)c(=O)n1 [A5'pp5'C, adenosine 5',5'"-p^1,p^2 -diphospho-cytidine]
percent protection as compared to control TMV infected leaves [2, 4]: 36.1%
percent protection as compared to control TMV infected leaves [2, 5]: 55.0%
percent protection as compared to control TMV infected leaves [2, 6]: 35.5%
percent protection as compared to control TMV infected leaves [2, 7]: 51.9%
induced resistance to TMV infection in the non-treated half-leaf ([2]; in words): resulted in an induced resistance to TMV infection even in the non-treated half-leaf
percent protection as compared to control TMV infected leaves [2, 8]: 32.9%
percent protection as compared to control TMV infected leaves [2, 9]: 63.5%

Nc1nc2c(ncn2[C@@H]2O[C@H](COP(=O)(O)OP(=O)(O)OC[C@H]3O[C@@H](n4cnc5c(N)ncnc54)[C@H](O)[C@@H]3O)[C@@H](O)[C@H]2O)c(=O)[nH]1 [A5'pp5'G, adenosine 5',5'"-p^1,p^2 -diphospho-guanosine]
suppression (inhibition) of the virus [3]: 98-100%
% Protection [3]: 98%
ng TMV/g of leaves [3]: 4 ng TMV/g of leaves
percent protection as compared to control TMV infected leaves [2, 4]: 59.8%
percent protection as compared to control TMV infected leaves [2, 5]: 84.8%
percent protection as compared to control TMV infected leaves [2, 6]: 44.7%
percent protection as compared to control TMV infected leaves [2, 7]: 89.5%
induced resistance to TMV infection in the non-treated half-leaf ([2]; in words): resulted in an induced resistance to TMV infection even in the non-treated half-leaf
percent protection as compared to control TMV infected leaves [2, 8]: 100%
percent protection as compared to control TMV infected leaves [2, 9]: 100%

Nc1ncnc2c1ncn2[C@@H]1O[C@H](COP(=O)(O)OP(=O)(O)OC[C@H]2O[C@@H](n3ccc(=O)[nH]c3=O)[C@H](O)[C@@H]2O)[C@@H](O)[C@H]1O [A5'pp5'U, adenosine 5',5'"-p^1,p^2 -diphospho-uridine]
percent protection as compared to control TMV infected leaves [2, 4]: 5.2%
percent protection as compared to control TMV infected leaves [2, 5]: 38.1%
percent protection as compared to control TMV infected leaves [2, 6]: 0%
percent protection as compared to control TMV infected leaves [2, 7]: 0%
percent protection as compared to control TMV infected leaves [2, 8]: 21.0%
percent protection as compared to control TMV infected leaves [2, 9]: 80.2%

Nc1ncnc2c1ncn2[C@@H]1O[C@H](COP(=O)(O)OP(=O)(O)O[C@@H]2[C@H](O)[C@@H](CO)O[C@H]2n2cnc3c(N)ncnc32)[C@@H](O)[C@H]1O [Adenosine 2',5'-p^1,p^2-diadenosine, adenosine 2',5'-diphospho-adenosine]
inhibition of TMV replication ([1]; TMV-infected discs, in words): effective inhibitor of TMV replication
inhibition at 1 µM ([1]; Tobacco mosaic virus, 10^-6 M (Table 6), read-out: % Inhibition as related to control): 42%
inhibition at 0.1 µM ([1]; Tobacco mosaic virus, 10^-7 M (Table 6), read-out: % Inhibition as related to control): 37%
inhibition at 0.01 µM ([1]; Tobacco mosaic virus, 10^-8 M (Table 6), read-out: % Inhibition as related to control): 26.4%
inhibition at 0.001 µM ([1]; Tobacco mosaic virus, 10^-9 M (Table 6), read-out: % Inhibition as related to control): 21%
inhibition at 0.0001 µM ([1]; Tobacco mosaic virus, 10^-10 M (Table 6), read-out: % Inhibition as related to control): 0%

Nc1ncnc2c1ncn2[C@@H]1O[C@H](COP(=O)(O)OP(=O)(O)OC[C@H]2O[C@@H](n3cnc4c(N)ncnc43)[C@@H]3OP(=O)(O)O[C@@H]32)[C@H]2OP(=O)(O)O[C@H]21 [P<A5'PP5'A>P, 2',3'-cyclic phospho-diadenosine 5',5'"-p^1,p^2-diphosphate]
antiviral activity/potency on structural modification ([1]; in words, compared to dinucleotides with 2 and 3 internal phosphates): did not decrease their antiviral potency
